According to ChEMBL document CHEMBL1201862, “PubChem BioAssay data set” (2004):
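Results reflect a 48-hour exposure of cells in 96-well plates to compound at five concentrations. GI50 is the concentration that inhibits growth by half.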 Activity calls are given as the source filed them. No stated cut-off is given here; in the data, active = GI50 up to about 1.1 µM and inactive = higher.

Assays:
Test in all cases: inhibition of tumour cell growth, NCI panel, 48 h
SW-620 = system: SW-620
COLO 205 = system: COLO 205
SK-MEL-2 = system: SK-MEL-2
SF-295 = system: SF-295
K562 = system: K562
UACC-62 = system: UACC-62
HL-60 = system: HL-60
SNB-75 = system: SNB-75
MCF7 = system: MCF7
SNB-19 = system: SNB-19
DU-145 = system: DU-145
OVCAR-4 = system: OVCAR-4
NCI/ADR-RES = system: NCI/ADR-RES
CAKI-1 = system: CAKI-1
MDA-MB-435 = system: MDA-MB-435
NCI-H522 = system: NCI-H522
UACC-257 = system: UACC-257
LOX IMVI = system: LOX IMVI
NCI-H460 = system: NCI-H460
A549 = system: A549

SMILES | GI50 (SW-620) | GI50 (COLO 205) | GI50 (SK-MEL-2) | GI50 (SF-295) | GI50 (K562) | GI50 (UACC-62) | GI50 (HL-60) | GI50 (SNB-75) | GI50 (MCF7) | GI50 (SNB-19) | GI50 (DU-145) | GI50 (OVCAR-4) | GI50 (NCI/ADR-RES) | GI50 (CAKI-1) | GI50 (MDA-MB-435) | GI50 (NCI-H522) | GI50 (UACC-257) | GI50 (LOX IMVI) | GI50 (NCI-H460) | GI50 (A549)
CC(C)=CCCC(C)CCOS(=O)C(F)(F)F (stereo not given) | 3.29 µM (inactive) | 4.7 µM (inactive) | 16.9 µM (inactive) | 25.1 µM (inactive) | 3.78 µM (inactive) | 8.81 µM (inactive) | 2.88 µM (inactive) | 20.5 µM (inactive) | 34.7 µM (inactive) | 22.1 µM (inactive) | 35.3 µM (inactive) | 6.59 µM (inactive) | 4.16 µM (inactive) | 25.2 µM (inactive) | 4.18 µM (inactive) | 1.71 µM (inactive) | 19.5 µM (inactive) | 16.3 µM (inactive) | 16.1 µM (inactive) | 22.9 µM (inactive)
O=c1ccs[nH]1 | 4.06 µM (inactive) | 8.91 µM (inactive) | 28.3 µM (inactive) | 6.17 µM (inactive) | 7.82 µM (inactive) | 16.4 µM (inactive) | 3.13 µM (inactive) | 16.9 µM (inactive) | 8.36 µM (inactive) | 32.1 µM (inactive) | 40.5 µM (inactive) | 16 µM (inactive) | 17.7 µM (inactive) | 9.46 µM (inactive) | 13.6 µM (inactive) | 0.42 µM (active) | 8.91 µM (inactive) | 7.26 µM (inactive) | 9.08 µM (inactive) | 19.9 µM (inactive)
Cc1ccc(S(=O)(=O)CC2(Br)CCc3ccccc3C2=O)cc1 (stereo not given) | 18 µM (inactive) | 18.1 µM (inactive) | 21.4 µM (inactive) | 77.8 µM (inactive) | 5.89 µM (inactive) | 23 µM (inactive) | 17.3 µM (inactive) | 29.9 µM (inactive) | 24.5 µM (inactive) | 41.9 µM (inactive) | 74.8 µM (inactive) | 27.7 µM (inactive) | 48.9 µM (inactive) | 24.5 µM (inactive) | 16.5 µM (inactive) | 15.6 µM (inactive) | 22.3 µM (inactive) | 32 µM (inactive) | > 100 µM (inactive) | 45.3 µM (inactive)
CC1(C)N=C(N)N=C(N)N1c1cccc(Cl)c1 | > 100 µM (inactive) | 5.35 µM (inactive) | > 100 µM (inactive) | 1.83 µM (inactive) | 3.66 µM (inactive) | 2.88 µM (inactive) | > 100 µM (inactive) | 25.6 µM (inactive) | 4.6 µM (inactive) | > 100 µM (inactive) | 17.4 µM (inactive) | > 100 µM (inactive) | 0.681 µM (active) | > 100 µM (inactive) | 0.604 µM (active) | 5.87 µM (inactive) | 5.56 µM (inactive) | 2.54 µM (inactive) | 1.43 µM (inactive) | 2.41 µM (inactive)
